# Values quoted from earlier work as cited in PMC9869109 (Angewandte Chemie (International ed. in English), 2022).
# Test system: cell nuclei
# Conditions: previous result ref 12
substance,measurement,value
NBD-llllpY,nuclear-targeting ability,weak nuclear-targeting ability
